Source: PMC10850145, “Hormonal steroids induce multidrug resistance and stress response genes in Neisseria gonorrhoeae by binding to MtrR” (Nature Communications, 2024)
Several values for one entry are separate records, joined by “and”; a condition that tells them apart may be missing. Equal entries are not always repeated. Where two headings read alike, the source gives them in different places.

Test system: mtrC-lacZ expression
Assay type: cell-based, Neisseria gonorrhoeae
Details: for mtrC-lacZ β-galactosidase activity, Mean: left block of sheet (mtrCDE); for β-galactosidase activity, Mean: second (right) untitled block of sheet Figure S10 (mtrC); for β-galactosidase activity, mtrC-lacZ, Mean: strain ΔmtrR + mtrR WT (pGCC3-mtrR); for Plate-6 (Testosterone) Miller units, Mean: upper four plate rows; for Miller units, Mean: right block Plate-4
[1] = strain ΔmtrR + mtrR R176E, 50 µM hormone
[2] = strain ΔmtrR + mtrR WT, 25 µM hormone
[3] = strain ΔmtrR + mtrR WT, 50 µM hormone

In the case of C[C@]12CC[C@H]3[C@@H](CCC4=CC(=O)CC[C@@]43C)[C@@H]1CC[C@@H]2O [Testosterone, testosterone], the “mtrC-lacZ β-galactosidase activity, Mean” value [1] is reported as 224 Miller units, the “β-galactosidase activity, Mean” value [1] is reported as 83 Miller units and the “mtrC-lacZ β-galactosidase activity, Mean” value (strain ΔmtrR + mtrR R176E, 100 µM hormone) is reported as 238 Miller units. For the same compound, the “β-galactosidase activity, mtrC-lacZ, Mean” value (hormone 6.25 µM) was 125 Miller units, the “β-galactosidase activity, mtrC-lacZ, Mean” value (hormone 12.5 µM) was 130 Miller units and the “β-galactosidase activity, mtrC-lacZ, Mean” value (hormone 25 µM) was 133 Miller units. For the same compound, the “β-galactosidase activity, mtrC-lacZ, Mean” value (hormone 50 µM) was 152 Miller units, the “mtrC-lacZ β-galactosidase activity, Mean” value (strain ΔmtrR + mtrR WT, 1 µM hormone) was 107 Miller units and the “β-galactosidase activity, Mean” value (strain ΔmtrR + mtrR WT, 6.25 µM hormone) was 45 Miller units. The “mtrC-lacZ β-galactosidase activity, Mean” value (strain ΔmtrR + mtrR WT, 10 µM hormone) was 177 Miller units, the “β-galactosidase activity, Mean” value (strain ΔmtrR + mtrR WT, 12.5 µM hormone) was 50 Miller units and the “mtrC-lacZ β-galactosidase activity, Mean” value [2] was 181 Miller units. The “β-galactosidase activity, Mean” value [2] was 70 Miller units, the “mtrC-lacZ β-galactosidase activity, Mean” value [3] was 213 Miller units and the “β-galactosidase activity, Mean” value [3] was 74 Miller units. For the same compound, the “mtrC-lacZ β-galactosidase activity, Mean” value (strain ΔmtrR + mtrR WT, 100 µM hormone) was 227 Miller units, the “mtrC-lacZ β-galactosidase activity, Mean” value (strain ΔmtrR, 1 µM hormone) was 334 Miller units and the “β-galactosidase activity, Mean” value (strain ΔmtrR, 6.25 µM hormone) was 146 Miller units. For the same compound, the “mtrC-lacZ β-galactosidase activity, Mean” value (strain ΔmtrR, 10 µM hormone) was 358 Miller units, the “β-galactosidase activity, Mean” value (strain ΔmtrR, 12.5 µM hormone) was 153 Miller units and the “β-galactosidase activity, Mean” value (strain ΔmtrR, 25 µM hormone) was 155 Miller units. The “mtrC-lacZ β-galactosidase activity, Mean” value (strain ΔmtrR, 50 µM hormone) was 284 Miller units, the “β-galactosidase activity, Mean” value (strain ΔmtrR, 50 µM hormone) was 141 Miller units and the “mtrC-lacZ β-galactosidase activity, Mean” value (strain ΔmtrR, 100 µM hormone) was 369 Miller units. The “Plate-6 (Testosterone) Miller units, Mean” value (testosterone 6.25 µM, plate column 3) was 69 Miller units, the “Plate-6 (Testosterone) Miller units, Mean” value (testosterone 6.25 µM, plate column 9 (second strain set, columns 7-12)) was 96 Miller units and the “Plate-6 (Testosterone) Miller units, Mean” value (testosterone 12.5 µM, plate column 4) was 81 Miller units. The “Plate-6 (Testosterone) Miller units, Mean” value (testosterone 12.5 µM, plate column 10 (second strain set, columns 7-12)) was 102 Miller units, the “Plate-6 (Testosterone) Miller units, Mean” value (testosterone 25 µM, plate column 5) was 98 Miller units and the “Plate-6 (Testosterone) Miller units, Mean” value (testosterone 25 µM, plate column 11 (second strain set, columns 7-12)) was 112 Miller units. For the same compound, the “Plate-6 (Testosterone) Miller units, Mean” value (testosterone 50 µM, plate column 6) was 117 Miller units, the “Plate-6 (Testosterone) Miller units, Mean” value (testosterone 50 µM, plate column 12 (second strain set, columns 7-12)) was 119 Miller units and the “Miller units, Mean” value (third strain (lower plate half, wells 1-6; not named), testosterone 6.25 µM) was 45 Miller units. The “Miller units, Mean” value (third strain (lower plate half, wells 1-6; not named), testosterone 12.5 µM) was 50 Miller units, the “Miller units, Mean” value (third strain (lower plate half, wells 1-6; not named), testosterone 25 µM) was 70 Miller units and the “Miller units, Mean” value (third strain (lower plate half, wells 1-6; not named), testosterone 50 µM) was 74 Miller units. The “Miller units, Mean” value (ΔmtrR (by plate layout), testosterone 6.25 µM) was 146 Miller units, the “Miller units, Mean” value (ΔmtrR (by plate layout), testosterone 12.5 µM) was 153 Miller units and the “Miller units, Mean” value (ΔmtrR (by plate layout), testosterone 25 µM) was 155 Miller units. The “Miller units, Mean” value (ΔmtrR (by plate layout), testosterone 50 µM) was 141 Miller units, the “β-galactosidase activity, Miller units (single replicate)” value (shortened to “β-galactosidase activity, Miller units”) (ΔmtrR + mtrR WT in trans, 1 µM, first data set (c15-c36)) was 95 Miller units and 106 Miller units and the “β-galactosidase activity, Miller units” value (ΔmtrR + mtrR WT in trans, 6.25 µM, second data set (c53-c74)) was 36 Miller units and 39 Miller units and 65 Miller units and 38 Miller units. The “β-galactosidase activity, Miller units” value (ΔmtrR + mtrR WT in trans, 10 µM, first data set (c15-c36)) was 167 Miller units and 179 Miller units, the “β-galactosidase activity, Miller units” value (ΔmtrR + mtrR WT in trans, 12.5 µM, second data set (c53-c74)) was 52 Miller units and 40 Miller units and 64 Miller units and 45 Miller units and the “β-galactosidase activity, Miller units” value (ΔmtrR + mtrR WT in trans, 25 µM, first data set (c15-c36)) was 181 Miller units and 185 Miller units. For the same compound, the “β-galactosidase activity, Miller units” value (ΔmtrR + mtrR WT in trans, 25 µM, second data set (c53-c74)) was 72 Miller units and 60 Miller units and 77 Miller units, the “β-galactosidase activity, Miller units” value (ΔmtrR + mtrR WT in trans, 50 µM, first data set (c15-c36)) was 185 Miller units and 193 Miller units and the “β-galactosidase activity, Miller units” value (ΔmtrR + mtrR WT in trans, 50 µM, second data set (c53-c74)) was 89 Miller units and 62 Miller units and 81 Miller units and 65 Miller units. The “β-galactosidase activity, Miller units” value (ΔmtrR + mtrR WT in trans, 100 µM, first data set (c15-c36)) was 195 Miller units and 175 Miller units, the “β-galactosidase activity, Miller units” value (ΔmtrR, 1 µM, first data set (c15-c36)) was 360 Miller units and 326 Miller units and 318 Miller units and the “β-galactosidase activity, Miller units” value (ΔmtrR, 6.25 µM, second data set (c53-c74)) was 213 Miller units and 147 Miller units and 123 Miller units and 100 Miller units. The “β-galactosidase activity, Miller units” value (ΔmtrR, 10 µM, first data set (c15-c36)) was 393 Miller units and 347 Miller units and 355 Miller units and 336 Miller units, the “β-galactosidase activity, Miller units” value (ΔmtrR, 12.5 µM, second data set (c53-c74)) was 202 Miller units and 175 Miller units and 120 Miller units and 117 Miller units and the “β-galactosidase activity, Miller units” value (ΔmtrR, 25 µM, first data set (c15-c36)) was 325 Miller units and 289 Miller units and 330 Miller units and 304 Miller units. The “β-galactosidase activity, Miller units” value (ΔmtrR, 25 µM, second data set (c53-c74)) was 194 Miller units and 180 Miller units and 119 Miller units and 125 Miller units, the “β-galactosidase activity, Miller units” value (ΔmtrR, 50 µM, first data set (c15-c36)) was 298 Miller units and 287 Miller units and 282 Miller units and 269 Miller units and the “β-galactosidase activity, Miller units” value (ΔmtrR, 50 µM, second data set (c53-c74)) was 175 Miller units and 157 Miller units and 99 Miller units. For the same compound, the “β-galactosidase activity, Miller units” value (ΔmtrR, 100 µM, first data set (c15-c36)) was 429 Miller units and 358 Miller units and 309 Miller units and 379 Miller units.
